EP1212395B1, “IMPROVED METHODS, COMPOSITIONS, AND ARTICLES FOR ODOR CONTROL” (THE PROCTER & GAMBLE COMPANY, priority 1999, dated 2001)
Where a name gives a salt, the structure may show the parent alone. Read-outs that look alike come from different tables or passages of the source.

Experiments:
[1] = cited from earlier work
[2] = Interaction of perfume components with cyclodextrin (CD); format: physicochemical; details: perfume component with cyclodextrin
From the text: The following table illustrates the molecular weight property of some of the preferred perfume versus non-preferred perfume components.
Examples of Perfume Components for CD Interaction

[3] = cited from earlier work; remark: listed apart in the source
[4] = Elevation in surface tension of surfactant solution in the presence of cyclodextrin; format: physicochemical; details: in the presence of a typical cyclodextrin (about 1% solution)
From the text: Suitable cyclodextrin-compatible surfactants can be readily identified by the absence of effect of cyclodextrin on the surface tension provided by the surfactant. This is achieved by determining the surface tension (in dyne/cm) of aqueous solutions of the surfactant in the presence and in the absence of about 1% of a specific cyclodextrin in the solutions. The aqueous solutions contain surfactant at concentrations of approximately 0.5%, 0.1%, 0.01%, and 0.005%. The cyclodextrin can affect the surface activity of a surfactant by elevating the surface tension of the surfactant solution. If the surface tension at a given concentration in water differs by more than about 10% from the surface tension of the same surfactant in the 1% solution of the cyclodextrin, that is an indication of a strong interaction between the surfactant and the cyclodextrin. The preferred surfactants herein should have a surface tension in an aqueous solution that is different (lower) by less than about 10%, preferably less than about 5%, and more preferably less than about 1% from that of the same concentration solution containing 1% cyclodextrin.
The cyclodextrin-compatible surfactants described above are either weakly interactive with cyclodextrin (less than 5% elevation in surface tension), or non-interactive (less than 1% elevation in surface tension).

Molecule | CD interaction [2] | also measured
OCCOc1ccccc1 [2-phenoxyethanol] | – | solubility in water ([1]; in water): about 2.67%
OCCc1ccccc1 [2-phenylethanol] | – | solubility in water ([1]; in water): about 2%
O=[N+]([O-])C1(Br)COCOC1 [Bronidox L, 5-bromo-5-nitro-1,3-dioxane] | – | solubility in water ([1]; in water): about 0.46%
CC(C=O)Cc1ccc(C(C)C)cc1 (centres unmarked) [Cymal] | strong | –
CC1(C)C(=O)N(CO)C(=O)N1CO [DMDM hydantoin, 1,3-bis(hydroxymethyl)-5,5-dimethyl-2,4-imidazolidinedione] | – | solubility in water ([1]; in water): more than 50%
CCOC(=O)c1ccccc1C(=O)OCC [Diethyl Phthalate] | weak | –
ClC=CC[N+]12CN3CN(CN(C3)C1)C2.[Cl-] [Dowicil 200, 1-(3-Chlorallyl) -3,5,7-triaza-1-azoniaadamantane chloride] | – | solubility in water ([1]; result in words): freely soluble in water
CC(=O)OC1CC2CC1C1CC=CC21 (centres unmarked) [Flor Acetate] | strong | –
CCC(=O)OC1CC2CC1C1CC=CC21 (centres unmarked) [Frutene] | strong | –
CC1COCc2cc3c(cc21)C(C)(C)C(C)C3(C)C (centres unmarked) [Galaxolide] | weak | –
CCCCCCOC(=O)c1ccccc1O [Hexyl Salicylate] | weak | –
CCCCCCC(C=O)=Cc1ccccc1 [Hexyl cinnamic Aldehyde] | weak | –
CC(=O)C1(C)CC2=C(CCCC2(C)C)CC1C (centres unmarked) [Iso-E Super] | weak | –
CCCCCCCCCCCCCC(=O)OC(C)C [Iso-propyl Myristate] | weak | –
CC(=O)C(C)=C(C)C(C)C(C)(C)C (centres unmarked) [Koavone] | strong | –
CC(C=O)Cc1ccc(C(C)(C)C)cc1 (centres unmarked) [Lilial, Lilial (p-t-bucinal)] | strong | –

Molecule | CD interaction [2] | also measured
CC(C)(O)CCCC1=CCC(C=O)CC1 (centres unmarked) [Lyral] | weak | –
CCCCCC1C(=O)CCC1CC(=O)OC (centres unmarked) [Methyl Dihydro Jasmonate] | weak | –
O=C(Cc1ccccc1)OCCc1ccccc1 [Phenyl-Ethyl-Phenyl Acetate] | weak | –
Cn1sc2c(c1=O)CCC2 [Promexal, 2-methyl-4,5-trimethylene-4-isothiazolin-3-one] | – | stability over a wide pH range [3]: 4-12
O=c1[nH]sc2ccccc12 [Proxel, 1,2-benzisothiazolin-3-one] | – | stability over a wide pH range [3]: 4-12
CC(=O)OC(C)(C)C1CC=C(C)CC1 (centres unmarked) [Terpinyl Acetate] | significant | –
CC(=O)OC1CCC(C(C)(C)C)CC1 (centres unmarked) [Vertenex, para-tert-butylcyclohexyl acetate] | strong | –
CC(=O)/C=C/C1C(C)=CCCC1(C)C (centres unmarked) [a-ionone] | strong | –
OCc1ccccc1 [benzyl alcohol] | – | solubility in water ([1]; in water): about 4%
CC(C)(O)C(Cl)(Cl)Cl [chlorobutanol, 1,1,1-Trichloro-2-methylpropan-2-ol] | – | solubility in water ([1]; in water): about 0.8%
[H]/N=C(\N/C(=N/[H])NCCCCCCNC(=N)NC(=N)Nc1ccc(Cl)cc1)Nc1ccc(Cl)cc1 [diacetate salt, 1,1'-hexamethylene bis(5-(p-chlorophenyl)biguanide), reference compound] | – | solubility in water ([1]; in water): about 1.8%
[H]/N=C(\N/C(=N/[H])NCCCCCCNC(=N)NC(=N)Nc1ccc(Cl)cc1)Nc1ccc(Cl)cc1 [digluconate salt, 1,1'-hexamethylene bis(5-(p-chlorophenyl)biguanide), reference compound] | – | solubility in water ([1]; in water): about 70%
CCCCCCCCCCCCOS(=O)(=O)[O-].[Na+] [sodium dodecyl sulfate] | – | elevation in surface tension [4]: > 10%
[Na+].[O-][n+]1ccccc1[S-] [sodium pyrithione] | – | solubility in water ([1]; in water): about 50%
a-Me Ionone | strong | –
dodecanolpoly(6)ethoxylate | – | elevation in surface tension [4]: > 10%
